According to patent publication US20090076062A1, “Organic Compounds” (priority 2007, published 2009):

What follows are molecules tested against T1, Recombinant human renin (Homo sapiens, UniProt P00797) (assay: Renin inhibitory activity in vitro, hu-renin FRET assay).
T1 construct: made in house; host or cells: Chinese Hamster Ovary cells
T1 sequence (P00797 67-406): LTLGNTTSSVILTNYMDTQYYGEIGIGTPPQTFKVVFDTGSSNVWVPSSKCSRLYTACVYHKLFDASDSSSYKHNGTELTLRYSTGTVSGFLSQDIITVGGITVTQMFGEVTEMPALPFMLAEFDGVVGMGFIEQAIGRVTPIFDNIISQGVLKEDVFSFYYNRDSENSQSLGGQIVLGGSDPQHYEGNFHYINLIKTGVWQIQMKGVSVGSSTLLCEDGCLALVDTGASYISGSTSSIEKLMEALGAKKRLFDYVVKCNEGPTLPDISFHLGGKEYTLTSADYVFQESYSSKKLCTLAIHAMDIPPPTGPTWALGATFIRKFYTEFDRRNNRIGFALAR
Type: biochemical
Protocol: Recombinant human renin (expressed in Chinese Hamster Ovary cells and purified using standard methods) at 4 nM concentration is incubated with test compound at various concentrations for 1 h at RT in 0.1 M Tris-HCl buffer, pH 7.4, containing 0.05 M NaCl, 0.5 mM EDTA and 0.05% CHAPS. Synthetic peptide substrate Arg-Glu(EDANS)-Ile-His-Pro-Phe-His-Leu-Val-Ile_His_Thr-Lys(DABCYL)-Arg9 is added to a final concentration of 2 μM and increase in fluorescence is recorded at an excitation wave-length of 340 nm and at an emission wave-length of 485 nm in a microplate spectro-fluorimeter. IC50 values are calculated from percentage of inhibition of renin activity as a function of test compound concentration (Fluorescence Resonance Energy Transfer, FRET, assay). Recombinant human renin (expressed in Chinese Hamster Ovary cells and purified using standard methods) at 1 nM concentration is incubated with test compound at various concentrations for 1.5 h at 37° C. in 0.1 M Tris/HCl pH 7.4 containing 0.05 M NaCl, 0.5 mM EDTA and 0.025% (w/v) CHAPS. Synthetic peptide substrate Ac-Ile-His-Pro-Phe-His-Leu-Val-Ile-His-Asn-Lys-[DY-505-X5] is added to a final concentration of 5 μM. The enzyme reaction is stopped by adding 6 μL of 1.0% TFA. The product of the reaction is separated by HPLC and quantified by spectrophotometric measurement at […] wave-length. IC50 values are calculated from percentage of inhibition of renin activity as a function of test compound concentration.
Renin inhibitory activity was assessed in vitro by FRET assay (as above described). Results for representative compounds of formula I are: […]
Molecule COCCCOc1cc(C[C@@H](C[C@H](N)[C@@H](O)C[C@H](C(=O)NCC2CCOCC2)C(C)C)C(C)C)ccc1OC [Example 14, (2S,4S,5S,7S)-5-Amino-4-hydroxy-2-isopropyl-7-[4-methoxy-3-(3-methoxy-propoxy)-benzyl]-8-methyl-nonanoic acid (tetrahydro-pyran-4-ylmethyl)-amide] has an IC50 of 1.4 nM.
In the case of COCCCOc1cc(C[C@@H](C[C@H](N)[C@@H](O)C[C@H](C(=O)NC[C@@H]2CCCO2)C(C)C)C(C)C)ccc1OC [Example 10, (2S,4S,5S,7S)-5-Amino-4-hydroxy-2-isopropyl-7-[4-methoxy-3-(3-methoxy-propoxy)-benzyl]-8-methyl-nonanoic acid [(S)-1-(tetrahydro-furan-2-yl)methyl]-amide], the IC50 is reported as 3.5 nM.
Molecule COCCCOc1cc(C[C@@H](C[C@H](N)[C@@H](O)C[C@H](C(=O)NCc2ccoc2)C(C)C)C(C)C)ccc1OC [Example 17, (2S,4S,5S,7S)-5-Amino-4-hydroxy-2-isopropyl-7-[4-methoxy-3-(3-methoxy-propoxy)-benzyl]-8-methyl-nonanoic acid (furan-3-ylmethyl)-amide] has an IC50 of 2.5 nM.
Molecule COCCCOc1cc(C[C@@H](C[C@H](N)[C@@H](O)C[C@H](C(=O)NCC2CCCCO2)C(C)C)C(C)C)ccc1OC (single isomer, unassigned) [Example 19, (2S,4S,5S,7S)-5-Amino-4-hydroxy-2-isopropyl-7-[4-methoxy-3-(3-methoxy-propoxy)-benzyl]-8-methyl-nonanoic acid [2(R) or 2(S)-1-(tetrahydro-pyran-2-yl)methyl]-amide] has an IC50 of 8 nM.
With COCCCOc1cc(C[C@@H](C[C@H](N)[C@@H](O)C[C@H](C(=O)NCC2CCOC2)C(C)C)C(C)C)ccc1OC (single isomer, unassigned) [Example 30, (2S,4S,5S,7S)-5-Amino-4-hydroxy-2-isopropyl-7-[4-methoxy-3-(3-methoxy-propoxy)-benzyl]-8-methyl-nonanoic acid [(R) or (S)-1-(tetrahydro-furan-3-yl)methyl]-amide] the IC50 was 0.8 nM.
Work on COCCCOc1cc(C[C@@H](C[C@H](N)[C@@H](O)C[C@H](C(=O)NCC2CCCCO2)C(C)C)C(C)C)ccc1OC (single isomer, unassigned) [Example 20, (2S,4S,5S,7S)-5-Amino-4-hydroxy-2-isopropyl-7-[4-methoxy-3-(3-methoxy-propoxy)-benzyl]-8-methyl-nonanoic acid [(R)- or (S)-1-(tetrahydro-pyran-2-yl)methyl]-amide] yielded an IC50 of 7 nM.
COCCCOc1cc(C[C@@H](C[C@H](N)[C@@H](O)C[C@H](C(=O)NC2CCOCC2)C(C)C)C(C)C)ccc1OC [Example 1, (2S,4S,5S,7S)-5-Amino-4-hydroxy-2-isopropyl-7-[4-methoxy-3-(3-methoxy-propoxy)-benzyl]-8-methyl-nonanoic acid (tetrahydro-pyran-4-yl)-amide] showed an IC50 of 1.4 nM.
In the case of COCCCCc1cc(C[C@@H](C[C@H](N)[C@@H](O)C[C@H](C(=O)NC2CCOCC2)C(C)C)C(C)C)ccc1OC [Example 36, (2S,4S,5S,7S)-5-Amino-4-hydroxy-2-isopropyl-7-[4-methoxy-3-(4-methoxy-butyl)-benzyl]-8-methyl-nonanoic acid (tetrahydro-pyran-4-yl)-amide], the IC50 is reported as 0.3 nM.
COCCCOc1cc(C[C@@H](C[C@H](N)[C@@H](O)C[C@H](C(=O)NCc2ccco2)C(C)C)C(C)C)ccc1OC [Example 18, (2S,4S,5S,7S)-5-Amino-4-hydroxy-2-isopropyl-7-[4-methoxy-3-(3-methoxy-propoxy)-benzyl]-8-methyl-nonanoic acid (furan-2-ylmethyl)-amide] showed an IC50 of 0.9 nM.
For COCCCOc1cc(C[C@@H](C[C@H](N)[C@@H](O)C[C@H](C(=O)N[C@@H]2CCOC2)C(C)C)C(C)C)ccc1OC [Example 12, (2S,4S,5S,7S)-5-Amino-4-hydroxy-2-isopropyl-7-[4-methoxy-3-(3-methoxy-propoxy)-benzyl]-8-methyl-nonanoic acid ((R)-tetrahydrofuran-3-yl)-amide], the IC50 was 0.7 nM.
Molecule COCCCOc1cc(C[C@@H](C[C@H](N)[C@@H](O)C[C@H](C(=O)NC2CCN(C)CC2)C(C)C)C(C)C)ccc1OC [Example 5, (2S,4S,5S,7S)-5-Amino-4-hydroxy-2-isopropyl-7-[4-methoxy-3-(3-methoxy-propoxy)-benzyl]-8-methyl-nonanoic acid (1-methyl-piperidin-4-yl)-amide] has an IC50 of 3.2 nM.
Work on COCCCOc1cc(C[C@@H](C[C@H](N)[C@@H](O)C[C@H](C(=O)NCC2CCOC2)C(C)C)C(C)C)ccc1OC (single isomer, unassigned) [Example 29, (2S,4S,5S,7S)-5-Amino-4-hydroxy-2-isopropyl-7-[4-methoxy-3-(3-methoxy-propoxy)-benzyl]-8-methyl-nonanoic acid [3(R) or 3(S)-1-(tetrahydro-furan-3-yl)methyl]-amide] yielded an IC50 of 0.4 nM.
COCCCOc1cc(C[C@@H](C[C@H](N)[C@@H](O)C[C@H](C(=O)NC2CCOCC2)C(C)C)C(C)C)ccc1C [Example 26, (2S,4S,5S,7S)-5-Amino-4-hydroxy-2-isopropyl-7-[3-(3-methoxy-propoxy)-4-methyl-benzyl]-8-methyl-nonanoic acid (tetrahydro-pyran-4-yl)-amide] was tested, and the IC50 was 0.5 nM.
With COCCCOc1cc(C[C@@H](C[C@H](N)[C@@H](O)C[C@H](C(=O)N[C@@H]2CCN(C)C2)C(C)C)C(C)C)ccc1OC [Example 2, (2S,4S,5S,7S)-5-Amino-4-hydroxy-2-isopropyl-7-[4-methoxy-3-(3-methoxy-propoxy)-benzyl]-8-methyl-nonanoic acid ((R)-1-methyl-pyrrolidin-3-yl)-amide] the IC50 was 4 nM.
For COCCCOc1cc(C[C@@H](C[C@H](N)[C@@H](O)C[C@H](C(=O)N[C@H]2CCN(C)C2)C(C)C)C(C)C)ccc1OC [Example 3, (2S,4S,5S,7S)-5-Amino-4-hydroxy-2-isopropyl-7-[4-methoxy-3-(3-methoxy-propoxy)-benzyl]-8-methyl-nonanoic acid ((S)-1-methyl-pyrrolidin-3-yl)-amide], the IC50 was 0.7 nM.
Molecule COCCCOc1cc(C[C@@H](C[C@H](N)[C@@H](O)C[C@H](C(=O)NC[C@@H]2CCCO2)C(C)C)C(C)C)ccc1C [Example 28, (2S,4S,5S,7S)-5-Amino-4-hydroxy-2-isopropyl-7-[3-(3-methoxy-propoxy)-4-methyl-benzyl]-8-methyl-nonanoic acid [(S)-1-(tetrahydro-furan-2-yl)methyl]-amide] has an IC50 of 0.6 nM.
Work on COCCCOc1cc(C[C@@H](C[C@H](N)[C@@H](O)C[C@H](C(=O)NC2CCCOC2)C(C)C)C(C)C)ccc1OC (single isomer, unassigned) [Example 23, (2S,4S,5S,7S)-5-Amino-4-hydroxy-2-isopropyl-7-[4-methoxy-3-(3-methoxy-propoxy)-benzyl]-8-methyl-nonanoic acid [(R)- or (S)-3-(tetrahydro-pyran-3-yl)]-amide] yielded an IC50 of 0.5 nM.
Molecule COCCCOc1cc(C[C@@H](C[C@H](N)[C@@H](O)C[C@H](C(=O)NC[C@H]2CCCO2)C(C)C)C(C)C)ccc1OC [Example 11, (2S,4S,5S,7S)-5-Amino-4-hydroxy-2-isopropyl-7-[4-methoxy-3-(3-methoxy-propoxy)-benzyl]-8-methyl-nonanoic acid [(R)-1-(tetrahydro-furan-2-yl)methyl]-amide] has an IC50 of 4 nM.
Molecule COCCCOc1cc(C[C@@H](C[C@H](N)[C@@H](O)C[C@H](C(=O)NC[C@H]2CCCO2)C(C)C)C(C)C)ccc1C [Example 27, (2S,4S,5S,7S)-5-Amino-4-hydroxy-2-isopropyl-7-[3-(3-methoxy-propoxy)-4-methyl-benzyl]-8-methyl-nonanoic acid [(R)-1-(tetrahydro-furan-2-yl)methyl]-amide] has an IC50 of 0.5 nM.
COCCCOc1cc(C[C@@H](C[C@H](N)[C@@H](O)C[C@H](C(=O)N[C@H]2CCOC2)C(C)C)C(C)C)ccc1OC [Example 13, (2S,4S,5S,7S)-5-Amino-4-hydroxy-2-isopropyl-7-[4-methoxy-3-(3-methoxy-propoxy)-benzyl]-8-methyl-nonanoic acid ((S)-tetrahydrofuran-3-yl)-amide] gave an IC50 of 0.2 nM.
COCCCOc1cc(C[C@@H](C[C@H](N)[C@@H](O)C[C@H](C(=O)NC2CCCOC2)C(C)C)C(C)C)ccc1OC (single isomer, unassigned) [Example 22, (2S,4S,5S,7S)-5-Amino-4-hydroxy-2-isopropyl-7-[4-methoxy-3-(3-methoxy-propoxy)-benzyl]-8-methyl-nonanoic acid [(R)- or (S)-3-(tetrahydro-pyran-3-yl)]-amide] showed an IC50 of 2.5 nM.
